One test concerns IP-10. In words: IP-10 chemokine level in plasma/serum of treated mice by ELISA. The format is in vivo. As for the experimental part: FIG. 7 illustrates induction levels of IP-10 (A) and JE (B) following i.v. or i.m. injection of murine IFN-β protein. C57BL/6 mice were administered 15, 150, or 500 ng of purified recombinant mIFN-β protein (specific activity=2.0×10^8 units/mg) by either i.v. (via tail vein) or i.m. injection (n=3 mice per group). The mice were bled at 2, 4, 6, 12, 24, and 48 hours post-injection, and the plasma levels of IP-10 and JE were measured by ELISA (R&D Systems).
FIG. 8 illustrates the induction of IP-10 following intramuscular injection of AAV-1-mIFN-β DNA or mIFN-β plasmid DNA with electroporation (EP) in mice. […] Mice were bled at the indicated time points and IP-10 levels in plasma were determined by ELISA. […]
• A. Development of mIFN-β Biomarkers: For higher sensitivity in detection of murine IFN-β (mIFN-β) activity in vivo, biomarkers for mIFN-β activity were identified in mice after injection of mIFN-β protein or mIFN-β encoded gene therapy vectors. […] In the present study, the expression of the MxA mouse homologue, Mx1, (see e.g., Hug, H et al. Mol Cell Biol 8: 3065-79; Pavlovic, J (1993) Ciba Found Symp 176: 233-43) isolated from murine peripheral blood monocytes (PBMC's) was used to detect the presence of biologically active mIFN-β. • A quantitative PCR/RT-PCR assay was developed to quantitate the levels of Mx1 mRNA in murine PBMC's. […]

Another test has as its system SJL mice with acute EAE. In words: Mouse acute EAE model, daily clinical scoring. In kind it is in vivo.

As for “mIFN-β: purified recombinant murine interferon-beta protein”, the “time by which plasma IP-10 dropped to background” value in the test with IP-10 (bolus protein, each of three doses) was at most 24 h. The substance also showed an IP-10 levels increase in the test on IP-10 (high dose (500 ng) delivered i.v., 2 hours) of 3000 fold. The “clinical scores of EAE compared to vehicle treated mice” value with SJL mice with acute EAE (30,000 units s.c. every other day, first study) is given as “did not reach statistical significance”. For the same substance, in the test on SJL mice with acute EAE (100,000 Units s.c. every other day, second study (FIG. 12)), the “clinical scores of EAE compared to vehicle control” value was “significantly decreased clinical scores”. Besides, in the test with SJL mice with acute EAE (100,000 or 300,000 units SC every other day, 25 day study (FIG. 39A)), the “severity of the disease (clinical scores) compared to vehicle treated animals” value is listed as “significantly reduced the severity of the disease”. In addition, the “clinical scores of EAE compared with vehicle treated mice” value in the test on SJL mice with acute EAE (100,000 units s.c. every other day, first study (FIG. 11)) is reported as “significantly decreased clinical scores”.

These data come from patent publication US20080076729A1, “Interferon-beta gene therapy using an improved, regulated expression system” (Schering Aktiengesellachaft, priority 2005, published 2008).
